In paper PMC11005723, “Development of Complementary Photo‐arginine/lysine to Promote Discovery of Arg/Lys hPTMs Interactomes” (Advanced Science, 2024):

Assays:
[1] = biological target: T1, PHD domain of UHRF1 (UHRF1PHD) (Homo sapiens, UniProt Q96T88); assay: ITC binding of H3 peptides to UHRF1PHD; conditions: 25 °C, 19 injections of peptide into protein, dz peptides carry pre‐installed biotin, done two times
T1 construct: the PHD domain of UHRF1 (UHRF1PHD)
T1 sequence (Q96T88 310-366 limits assumed): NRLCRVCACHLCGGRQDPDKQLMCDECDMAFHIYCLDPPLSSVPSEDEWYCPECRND
Method: Experiments were performed at 25 °C on a MicroCal PEAQ‐ITC automated (Malvern Instruments). Protein was loaded in the cell was titrated with 19 injections of peptides. The binding isotherm was fit with MicroCal PEAQ‐ITC Analysis software. The assay was done two times to confirm results.

RBBP7 = biological target: T2, RBBP7 (Homo sapiens, UniProt Q16576); assay: ITC binding of native H3 peptides to RBBP7; conditions: H3R2me2a versus H3R2, from ITC Kd
T2 construct: DNA fragment encoding RBBP4/7 (1‐ 425) was cloned into pFBOH‐LIC donor plasmid; His (inferred from Ni-NTA purification; vector pFBOH-LIC); made in house; host or cells: sf9 insect cells (baculovirus)
T2 sequence (Q16576 whole entry, the tested form may be a part): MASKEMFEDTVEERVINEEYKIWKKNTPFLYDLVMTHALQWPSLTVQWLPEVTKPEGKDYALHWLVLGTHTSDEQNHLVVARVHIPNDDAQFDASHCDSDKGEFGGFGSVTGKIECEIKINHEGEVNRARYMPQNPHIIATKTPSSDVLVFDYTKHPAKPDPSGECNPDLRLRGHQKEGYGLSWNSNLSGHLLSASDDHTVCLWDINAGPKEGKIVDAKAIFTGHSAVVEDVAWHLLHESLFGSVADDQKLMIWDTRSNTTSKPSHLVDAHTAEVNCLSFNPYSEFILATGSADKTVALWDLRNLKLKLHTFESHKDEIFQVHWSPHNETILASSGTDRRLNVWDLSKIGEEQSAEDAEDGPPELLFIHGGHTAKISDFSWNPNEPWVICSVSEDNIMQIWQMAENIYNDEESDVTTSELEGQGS
Method: (§1) DNA fragment encoding RBBP4/7 (1‐ 425) was cloned into pFBOH‐LIC donor plasmid. The resulting plasmid was transformed into DH10Bac Competent E. coli cells (Invitrogen) and a recombinant Bacmid DNA was purified and followed by a recombinant baculovirus generation in sf9 insect cells. sf9 cells grown in HyQ SFX insect serum‐free medium (Thermo Scientific) were infected with 10 mL of P3 viral stocks per 1 L of suspension cell culture and incubated at 27 °C using a platform shaker set at 150 rpm. The cells were harvested by centrifugation (4000 rpm for 10 min at 4 °C) after 72 h of post‐infection time when viability dropped to 70–80%. […] Fractions were assessed by SDS‐PAGE electrophoresis and those containing pure protein were pooled, concentrated, and flash‐frozen for storage at −80 °C. […]

RBBP4 = biological target: T3, RBBP4 (Homo sapiens, UniProt Q09028); assay: ITC binding of native H3 peptides to RBBP4; conditions: H3R2me2a versus H3R2, from ITC Kd
T3 construct: DNA fragment encoding RBBP4/7 (1‐ 425) was cloned into pFBOH‐LIC donor plasmid; His (inferred from Ni-NTA purification; vector pFBOH-LIC); made in house; host or cells: sf9 insect cells (baculovirus)
T3 sequence (Q09028 whole entry, the tested form may be a part): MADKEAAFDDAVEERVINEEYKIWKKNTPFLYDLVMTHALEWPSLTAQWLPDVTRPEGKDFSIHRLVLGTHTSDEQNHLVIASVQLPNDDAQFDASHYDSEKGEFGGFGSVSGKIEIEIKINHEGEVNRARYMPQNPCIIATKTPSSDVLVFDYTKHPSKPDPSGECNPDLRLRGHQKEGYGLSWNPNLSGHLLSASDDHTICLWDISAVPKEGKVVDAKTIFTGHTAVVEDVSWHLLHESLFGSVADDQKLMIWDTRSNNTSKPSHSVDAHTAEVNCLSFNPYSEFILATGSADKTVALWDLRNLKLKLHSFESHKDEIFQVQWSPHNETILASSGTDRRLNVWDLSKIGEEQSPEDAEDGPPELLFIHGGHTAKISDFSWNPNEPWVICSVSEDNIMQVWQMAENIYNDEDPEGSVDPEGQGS
Method: as §1

[2] = biological target: T4, tandem PHD domain of DPF2 (DPF2PHD) (Homo sapiens, UniProt Q92785); assay: ITC binding of native H3 peptides to DPF2PHD; conditions: 25 °C, native H3_1‐15 peptides without diazirine and biotin, n = 2, representative data
T4 construct: His‐DPF2PHD (residues 270–391) domain in pET28‐MHL vector; His (N); made in house; host or cells: Escherichia coli BL21 (DE3)
T4 sequence (Q92785 270-391): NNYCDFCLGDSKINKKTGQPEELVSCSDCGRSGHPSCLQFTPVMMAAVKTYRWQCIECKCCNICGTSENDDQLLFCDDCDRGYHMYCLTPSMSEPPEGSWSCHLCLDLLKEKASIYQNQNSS

[3] = biological target: T5, PWWP domain of MSH6 (MSH6PWWP) (Homo sapiens, UniProt P52701); assay: ITC binding of H3R2me2a to MSH6PWWP; conditions: 25 °C
T5 construct: His‐MSH6PWWP (residues 87–198) domain in pET28‐MHL vector; His (N); made in house; host or cells: Escherichia coli BL21 (DE3)
T5 sequence (P52701 87-198): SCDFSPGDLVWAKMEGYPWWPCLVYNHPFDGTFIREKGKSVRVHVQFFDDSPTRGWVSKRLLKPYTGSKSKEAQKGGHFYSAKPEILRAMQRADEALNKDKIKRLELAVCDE
Method: His‐MSH6PWWP (residues 87–198) domain in pET28‐MHL vector. His‐ MSH6PWWP were expressed in Escherichia coli strain BL21 (DE3) (Novagen) with 0.5 mM IPTG induction at 16 °C in LB medium. After cell lysis by French Press Cell Disrupter (Thermo) and centrifugation, the supernatant was applied to a HisTrap (GE Healthcare) nickel column, and the bound protein was eluted with a linear imidazole gradient from 20 to 500 mM. And further purified by a HiLoad 16/60 Superdex 75 (GE Healthcare) gel filtration column. The pure protein were pooled and dialyzed in buffer (100 mM NaCl, 20 mM Tris, pH 7.5) with Slide‐A‐Lyzer (10000 MWCO). At last, the dialyzed protein were concentrated with to 5 mg mL^−1 and stored in −80 °C freezer for future use. Experiments were performed at 25 °C on a MicroCal PEAQ‐ITC automated (Malvern Instruments). Protein was loaded in the cell was titrated with 19 injections of peptides. The binding isotherm was fit with MicroCal PEAQ‐ITC Analysis software. The assay was done two times to confirm results.

C[C@H](N)C(=O)N[C@@H](CCCNC(=N)N)C(=O)N[C@H](C(=O)N[C@@H](CCC1(CN)N=N1)C(=O)N[C@@H](CCC(N)=O)C(=O)N[C@H](C(=O)N[C@@H](C)C(=O)N[C@@H](CCCNC(=N)N)C(=O)N[C@@H](CCCCN)C(=O)N[C@@H](CO)C(=O)N[C@H](C(=O)NCC(=O)NCC(=O)N[C@@H](CCCCNC(=O)CCCC[C@@H]1SC[C@@H]2NC(=O)N[C@@H]21)C(=O)N[C@@H](C)C(N)=O)[C@@H](C)O)[C@@H](C)O)[C@@H](C)O [H3K4‐dz]
Kd [1]: 6.4 µM

C[C@H](N)C(=O)N[C@@H](CCCNC(=N)N(C)C)C(=O)N[C@H](C(=O)N[C@@H](CCC1(CN)N=N1)C(=O)N[C@@H](CCC(N)=O)C(=O)N[C@H](C(=O)N[C@@H](C)C(=O)N[C@@H](CCCNC(=N)N)C(=O)N[C@@H](CCCCN)C(=O)N[C@@H](CO)C(=O)N[C@H](C(=O)NCC(=O)NCC(=O)N[C@@H](CCCCNC(=O)CCCC[C@@H]1SC[C@@H]2NC(=O)N[C@@H]21)C(=O)N[C@@H](C)C(N)=O)[C@@H](C)O)[C@@H](C)O)[C@@H](C)O [H3R2me2a]
decrease in binding affinity by asymmetric methylation (RBBP7) (RBBP7): three–fourfold decrease | decrease in binding affinity by asymmetric methylation (RBBP4) (RBBP4): three–fourfold decrease | Kd (DPF2PHD) [2]: no binding affinity detected | interaction with MSH6PWWP via ITC [3]: undetectable

C[C@H](N)C(=O)N[C@@H](CC1(CNC(=N)N)N=N1)C(=O)N[C@H](C(=O)N[C@@H](CCCCN)C(=O)N[C@@H](CCC(N)=O)C(=O)N[C@H](C(=O)N[C@@H](C)C(=O)N[C@@H](CCCNC(=N)N)C(=O)N[C@@H](CCCCN)C(=O)N[C@@H](CO)C(=O)N[C@H](C(=O)NCC(=O)NCC(=O)N[C@@H](CCCCNC(=O)CCCC[C@@H]1SC[C@@H]2NC(=O)N[C@@H]21)C(=O)N[C@@H](C)C(N)=O)[C@@H](C)O)[C@@H](C)O)[C@@H](C)O [H3R2‐dz]
Kd [1]: 10.6 µM
